Measurements as given in ChEMBL document CHEMBL4613232, “Novel 3,3-disubstituted oxindole derivatives. Synthesis and evaluation of the anti-proliferative activity” (Bioorg Med Chem Lett, 2020).

What was measured:
PC-3 = experiment: Antiproliferative activity against human PC3 cells; assay type: functional, cell-based
MCF7 = experiment: Antiproliferative activity against human MCF7 cells; assay type: functional, cell-based
SW-620 = experiment: Antiproliferative activity against human SW620 cells; assay type: functional, cell-based
MIA PaCa-2 = experiment: Antiproliferative activity against human MIAPaCa2 cells; assay type: functional, cell-based
A-375 = experiment: Antiproliferative activity against human A375 cells; assay type: functional, cell-based
PBMC = experiment: Cytotoxicity against human PBMC assessed as reduction in cell viability; assay type: cell-based

SMILES | IC50 (PC-3) [µM] | IC50 (MCF7) [µM] | IC50 (SW-620) [µM] | IC50 (MIA PaCa-2) [µM] | IC50 (A-375) [µM] | IC50 (PBMC) [µM] | Activity (SW-620) | Activity (MIA PaCa-2)
NC1(Cc2ccccc2)C(=O)Nc2ccc(Br)cc21 (centres undefined) | > 50 | > 50 | > 50 | > 50 | > 50 | > 100 |  | 
NC1(Cc2ccccc2)C(=O)Nc2ccccc21 (centres undefined) | > 50 | > 50 | 37.1 | 43.1 | > 50 | > 100 |  | 
CC(=O)N1C(=O)C(Cc2ccccc2)(NC=O)c2ccccc21 (centres undefined) | 18.2 | 14.4 | > 50 | 47 | > 50 | 45.5 |  | 
CCOC(=O)N1C(=O)C(Cc2ccccc2)(NC=O)c2cc(Br)ccc21 (centres undefined) | 32.5 | > 50 | > 50 | > 50 | > 50 | > 100 |  | 

Continued, in another order:

IC50 (PC-3) [µM] | IC50 (MCF7) [µM] | IC50 (SW-620) [µM] | IC50 (MIA PaCa-2) [µM] | IC50 (A-375) [µM] | SMILES | IC50 (PBMC) [µM] | Activity (SW-620) | Activity (MIA PaCa-2)
> 50 | > 50 | 27.7 | 30.2 | > 50 | CCOP(=O)(NC1(Cc2ccccc2)C(=O)Nc2ccc(Br)cc21)OCC (centres undefined) | 51.8 | Dose-dependent effect | Dose-dependent effect
 | > 50 | > 50 |  | > 50 | CCCC1(NC(=O)OC)C(=O)Nc2ccccc21 (centres undefined) | > 100 |  | 
8.95 | 17.7 | 9.81 | 7.46 | 6.41 | O=CNC1(Cc2ccccc2)C(=O)Nc2ccc(Br)cc21 (centres undefined) | 75.3 |  | 
> 50 | > 50 | > 50 | > 50 | > 50 | O=C(NC1(Cc2ccccc2)C(=O)Nc2ccc(Br)cc21)c1ccccc1 (centres undefined) | > 100 |  | 
17 | 30.4 | > 50 | > 50 | > 50 | CCOC(=O)CC1(NC=O)C(=O)N(C(C)=O)c2ccccc21 (centres undefined) | > 100 |  | 
